Test results as given in EP4624465A1, “COMPOUND SERVING AS DDR1 KINASE INHIBITOR, AND MEDICINE” (Nippon Shinyaku Co., Ltd., priority 2022, dated 2024).
Counter-ions that a name gives are not always drawn.

Each molecule was assayed against DDR1 kinase (Homo sapiens, UniProt Q08345) (assay: Evaluation of DDR1 kinase inhibition (LANCE Ultra TR-FRET kinase assay)). Details: DDR1 protein 0.5 nM, LANCE Ultra ULight-poly GAT substrate, 2 hours at room temperature, duplicate; read-out: DDR-1 IC50.
Type: biochemical
Design: purchased Carna Biosciences 08-113

Sequence of DDR1 kinase (Q08345 19-876 isoform Q08345-2 limits assumed): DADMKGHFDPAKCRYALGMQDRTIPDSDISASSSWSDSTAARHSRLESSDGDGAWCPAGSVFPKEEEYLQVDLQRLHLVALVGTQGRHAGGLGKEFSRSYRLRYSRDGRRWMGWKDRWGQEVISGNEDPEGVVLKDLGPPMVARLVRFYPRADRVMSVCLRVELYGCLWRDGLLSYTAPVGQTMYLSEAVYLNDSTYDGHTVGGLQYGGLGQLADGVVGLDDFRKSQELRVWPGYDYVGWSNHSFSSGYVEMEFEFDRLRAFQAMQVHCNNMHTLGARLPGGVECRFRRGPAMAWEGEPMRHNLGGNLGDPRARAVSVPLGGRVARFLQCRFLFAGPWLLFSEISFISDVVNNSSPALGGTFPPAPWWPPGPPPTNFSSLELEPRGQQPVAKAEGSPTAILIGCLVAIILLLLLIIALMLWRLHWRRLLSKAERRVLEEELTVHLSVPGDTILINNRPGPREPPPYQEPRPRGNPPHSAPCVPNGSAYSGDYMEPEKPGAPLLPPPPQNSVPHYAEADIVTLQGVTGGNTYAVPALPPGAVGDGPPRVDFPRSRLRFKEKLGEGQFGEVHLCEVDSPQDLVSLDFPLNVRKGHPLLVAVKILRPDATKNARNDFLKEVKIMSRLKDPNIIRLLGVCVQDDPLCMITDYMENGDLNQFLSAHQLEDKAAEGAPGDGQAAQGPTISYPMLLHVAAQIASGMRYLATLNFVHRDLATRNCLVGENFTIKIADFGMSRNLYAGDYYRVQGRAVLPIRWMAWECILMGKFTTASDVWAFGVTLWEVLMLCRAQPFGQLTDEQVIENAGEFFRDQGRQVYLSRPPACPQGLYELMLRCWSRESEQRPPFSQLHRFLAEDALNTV

First: O=C(c1cn[nH]c1)N1CC(c2nn(CC(=O)N3CCC[C@H]3C(F)(F)F)c3cc(F)cc(F)c23)C1 [Compound E-164, 2-(4,6-difluoro-3-[1-(1H-pyrazole-4-carbonyl)azetidin-3-yl]-1H-indazol-1-yl}-1-[(28)-2-(trifluoromethyl)pyrrolidin-1-yl]ethan-1-one]
Second: O=C(c1ccncc1F)N1CC(c2nn(CC(=O)N3CCC[C@H]3C(F)(F)F)c3cc(F)cc(F)c23)C1 [Compound E-142, 2-{4,6-difluoro-3-[1-(3-fluoropyridine-4-carbonyl)azetidin-3-yl]-1H-indazol-1-yl]-1-[(2S)-2-(trifluoromethyl)pyrrolidin-1-yl]ethan-1-one]
The IC50 of the first is 25-fold higher: 200 nM for the first, 7.9 nM for the second.

First: CC1(C)COCCN1C(=O)Cn1nc(C2CN(C(=O)c3ccnc(N)c3F)C2)c2ccccc21 [Compound E-190, 2-{3-[1-(2-amino-3-fluoropyridine-4-carbonyl)azetidin-3-yl]-1H-indazol-1-yl}-1-(3,3-dimethylmorpholin-4-yl)ethan-1-one]
Second: CN1CCN(C(=O)Cn2nc(C3CN(C(=O)c4cc(N)ncc4F)C3)c3ccccc32)CC1 [Compound E-260]
The IC50 of the first is 32-fold lower: 7.5 nM for the first, 240 nM for the second.

First: Nc1cc(C(=O)N2CC(c3nn(Cc4noc(C(F)(F)F)n4)c4cccc(F)c34)C2)ccn1 [Compound E-216, 4-[3-(4-fluoro-1-([5-(trifluoromethyl)-1,2,4-oxadiazol-3-yl]methyl)-1H-indazol-3-yl)azetidine-1-carbonyl]pyridin-2-amine]
Second: Nc1cc(C(=O)N2CC(c3nn(Cc4noc(C(F)(F)F)n4)c4ccccc34)C2)ccn1 [Compound E-217, 4-[3-(1-{[5-(trifluoromethyl)-1,2.4-oxadiazol-3-yl]methyl}-1 H-indazol-3-yl)azetidine-1-carbonyl]pyridin-2-amine]
The IC50 of the first is 2.5-fold lower: 13 nM for the first, 32 nM for the second. The first is the more potent here.

`COC[C@@H]1CCCN1C(=O)Cn1nc(C2CN(C(=O)c3cc(N)ncc3F)C2)c2c(F)cc(F)cc21` [Compound E-179, 2-{3-[1-(2-amino-5-fluoropyridine-4-carbonyl)azetidin-3-yl]-4,6-difluoro-1H-indazol-1-yl}-1-f(2S)-2-(methoxymethyl)pyrrolidin-1-yllethan-1-one] and `Nc1cc(C(=O)N2CC(c3nn(CC(=O)N4CCC[C@H]4C(F)(F)F)c4cc(F)cc(F)c34)C2)c(F)cn1` [Compound E-155] are within 1.5-fold of each other in IC50: 2.9 nM for the first, 2.4 nM for the second.

Compared with `Nc1cc(C(=O)N2CC(c3nn(Cc4noc(-c5ccccc5F)n4)c4cncc(F)c34)C2)ccn1` [Compound E-160, 4-[3-(4-fluoro-1-{[5-(2-fluorophenyl)-1,2,4-oxadiazol-3-yl]methyl}-1H-pyrazolo[3,4-c]pyridin-3-yl)azetidine-1-carbonyl]pyridin-2-amine], `Nc1cc(C(=O)N2CC(c3nn(Cc4noc(-c5cccc(C(F)(F)F)c5)n4)c4cccc(F)c34)C2)ccn1` [Compound E-117, 4-{3-[4-fluoro-1-({5-[3-(trifluoromethyl)phenyl])-1,2,4-oxadiazol-3-ylimethyl)-1H-indazol-3-yl]azetidine-1-carbonyl}pyridin-2-amine] is 2.5-fold lower in IC50: 140 nM for the first, 56 nM for the second.

Going from `Nc1cc(C(=O)N2CC(c3nn(CC#CC4CC4)c4cc(F)cc(F)c34)C2)ccn1` [Compound E-156] to `Nc1cc(C(=O)N2CC(c3nn(CC#Cc4ccccc4)c4cc(F)cc(F)c34)C2)ccn1` [Compound E-152, 4-{3-[4,6-difluoro-1-(3-phenylprop-2-yn-1-yl)-1H-indazol-3-yl]azetidine-1-carbonyl)pyridin-2-amine], the IC50 rises from 12 nM to 90 nM (7.5-fold). The first is the more potent here.

Going from `Cc1noc(Cn2nc(C3CN(C(=O)c4ccnc(N)c4)C3)c3c(F)cccc32)n1` [Compound E-109, 4-(3-{4-fluoro-1-[(3-methyl-1,2,4-oxadiazol-5-yl)methyl]-1H-indazol-3-yl}azetidine-1-carbonyl)pyridin-2-amine] to `Nc1cc(C(=O)N2CC(c3nn(Cc4noc(C5CCOCC5)n4)c4cccc(F)c34)C2)ccn1` [Compound E-137], the IC50 falls from 210 nM to 34 nM (6.2-fold).

First: CC(C(=O)N1CCC[C@H]1C(F)(F)F)n1nc(C2CN(C(=O)c3ccnc(N)c3)C2)c2c(F)cc(F)cc21 (stereo partly drawn) [Compound E-103, 2-{3-[1-(2-aminopyridine-4-carbonyl)azetidin-3-yl]-4,6-difluoro-1H-indazol-1-yl}-1-[(2S)-2-(trifluoromethyl)pyrrolidin-1-yl}propane-1-one hydrochloride]
Second: Nc1cc(C(=O)N2CC(c3nn(CC(=O)N4CCC[C@H]4COC(F)(F)F)c4cc(F)cc(F)c34)C2)ccn1 [Compound E-56, 2-{3-[1-(2-aminopyridine-4-carbonyl)azetidin-3-yl]-4,6-difluoro-1H-indazol-1-yl}-1-[(2S)-2-[(trifluoromethoxy)methyl]pyrrolidin-1-yl]ethan-1-one]
The IC50 of the first is 18-fold higher: 14 nM for the first, 0.8 nM for the second.

First: Nc1cc(C(=O)N2CC(c3nn(CC(=O)N4CCc5ccc(C6CC6)cc54)c4cc(F)cc(F)c34)C2)ccn1 [Compound E-172]
Second: COc1cnccc1C(=O)N1CC(c2nn(CC(=O)N3CCC[C@H]3C(F)(F)F)c3cc(F)cc(F)c23)C1 [Compound E-133, 2-{4,6-difluoro-3-[1-(3-methoxypyridine-4-carbonyl)azetidin-3-yl)-1H-indazol-1-yl}-1-[(28)-2-(trifluoromethyl)pyrrolidin-1-yl]ethan-1-one]
The IC50 of the first is 18-fold lower: 1.3 nM for the first, 23 nM for the second. The first is the more potent here.

First: Nc1cc(C(=O)N2CC(c3nn(Cc4noc(C5(C(F)(F)F)CCC5)n4)c4cccc(F)c34)C2)ccn1 [Compound E-146, 4-{3-[4-fluoro-1-({5-[1-(trifluoromethyl)cyclobutyl]-1,2,4-oxadiazol-3-yl}methyl)-1H-indazol-3-yl]azetidine-1-carbonyl}pyridin-2-amine hydrochloride]
Second: Nc1cc(C(=O)N2CC(c3nn(Cc4cn(CC5COC5)nn4)c4cccc(F)c34)C2)ccn1 [Compound E-38]
The IC50 of the first is 480-fold lower: 0.4 nM for the first, 190 nM for the second.

Going from `CC1(NC(=O)Cn2nc(C3CN(C(=O)c4ccnc(N)c4)C3)c3ccccc32)CCOCC1` [Compound E-209, 2-{3-[1-(2-aminopyridine-4-carbonyl)azetidin-3-yl]-1H-indazol-1-yl}-N-(4-methyloxan-4-yl)acetamide] to `Nc1cc(C(=O)N2CC(c3nn(CC(=O)N4CC5CCC(C4)O5)c4ccccc34)C2)c(F)cn1` [Compound E-258, 2-{3-[1-(2-amino-5-fluoropyridine-4-carbonyl)azetidin-3-yl]-1H-indazol-1-yll-1-18-oxa-3-azabicyclo[3.2.1}octan-3-yl]ethan-1-one], the IC50 falls from 280 nM to 74 nM (3.8-fold). The second is the more potent here.

Going from `Nc1nccc(C(=O)N2CC(c3nn(CC(=O)N4CCC[C@H]4C(F)(F)F)c4ccc(Cl)cc34)C2)n1` [Compound E-290, 2-{3-[1-(2-aminopyrimidine-4-carbonyl)azetidin-3-yl]-5-chloro-1H-indazol-1-yl}-1-[(28)-2-(trifluoromethyl)pyrrolidin-1-yl]ethan-1-one] to `Nc1nccc(C(=O)N2CC(c3nn(CC(=O)N4CCC[C@H]4C(F)(F)F)c4ccc(F)cc34)C2)n1` [Compound E-241, 2-{3-[1-(2-aminopyrimidine-4-carbonyl)azetidin-3-yl]-5-fluoro-1H-indazol-1-yl}-1-[(2S)-2-(trifluoromethyl)pyrrolidin-1-yl]ethan-1-one], the IC50 rises from 1.6 nM to 4.3 nM (2.7-fold).

Going from `Nc1cc(C(=O)N2CCC(c3nn(Cc4ccc(C(F)(F)F)nc4)c4cccc(F)c34)CC2)ccn1` [Compound E-134, 4-[4-(4-fluoro-1-([6-(trifluoromethyl)pyridin-3-yl]methyl)-1H-indazol-3-yl)piperidine-1-carbonyl]pyridin-2-amine] to `Cc1cc2c(C3CN(C(=O)c4ccnc(N)c4)C3)nn(Cc3ccc(C(F)(F)F)cc3)c2cn1` [Compound E-168, 4-[3-(5-methyl-1-{[4-(trifluoromethyl)phenyl]methyl]-1H-pyrazolo[3,4-c]pyridin-3-yl)azetidine-1-carbonyl]pyridin-2-amine], the IC50 falls from 110 nM to 64 nM (1.7-fold).

Compared with `C[C@@H]1CCC[C@H](C)N1C(=O)Cn1nc(C2CN(C(=O)c3cc(N)ncc3F)C2)c2ccccc21` [Compound E-266, 2·{3-[1-(2-amino-5-fluoropyridine-4-carbonyl)azetidin-3-yl]-1H-indazol-1-yl}-1-[(2R,68)-2,6-dimethylpiperidin-1-yl]ethan-1-one], `Nc1cc(C(=O)N2CC(c3nn(CC(=O)N4CCCC(C(F)(F)F)C4)c4ccccc34)C2)c(F)cn1` (stereo not shown) [Compound E-259, 2-{3-[1-(2-amino-5-fluoropyridine-4-carbonyl)azetidin-3-yl}-1H-indazol-1-yl}-1-[3-(trifluoromethyl)piperidin-1-yl]ethan-1-one] is 2.1-fold lower in IC50: 4.5 nM for the first, 2.1 nM for the second.

Going from `CN(CC(F)(F)F)C(=O)Cn1nc(C2CN(C(=O)c3nc(N)ncc3F)C2)c2cc(F)ccc21` [Compound E-278, 2-{3-[1-(2-amino-5-fluoropyrimidine-4-carbonyl)azetidin-3-yl]-5-fluoro-1H-indazol-1-yl}-N-methyl-N-(2,2,2-trifluoroethyl)acetamide] to `CN(CC(F)(F)F)C(=O)Cn1nc(C2CN(C(=O)c3ccnc(N)n3)C2)c2ccc(F)cc21` [Compound E-284, 2-{3-[1-(2-aminopyrimidine-4-carbonyl)azetidin-3-yl]-6-fluoro-1H-indazol-1-yl}-N-methyl-N-(2,2,2-trifluoroethyl)acetamide], the IC50 rises from 6.9 nM to 54 nM (7.8-fold). The first is the more potent here.

Going from `O=C(c1ccc2[nH]ncc2n1)N1CC(c2nn(CC(=O)N3CCC[C@H]3C(F)(F)F)c3cc(F)cc(F)c23)C1` [Compound E-141] to `Nc1cc(C(=O)N2CC(c3nn(CC(=O)N4CCC[C@H]4C(F)(F)F)c4cc(F)c(F)cc34)C2)c(F)cn1` [Compound E-280], the IC50 falls from 5 nM to 0.9 nM (5.6-fold). The second is the more potent here.

First: CC(C)(C)OC(=O)Cn1nc(C2CN(C(=O)c3cc(N)ncc3F)C2)c2ccccc21 [Compound E-220, tert-butyl 2-{3-[1-(2-amino-5-fluoropyridine-4-carbony)azetidin-3-yl]-1H-indazol-1-yl}acetate]
Second: Cc1cc2c(C3CN(C(=O)c4ccnc(N)c4C)C3)nn(CC(=O)N3CCO[C@@H](C(F)(F)F)C3)c2cn1 [Compound E-178, 2-{3-[1-(2-amino-3-methylpyridine-4-carbonyl)azetidin-3-yl]-5-methyl-1H-pyrazolol3,4-clpyridin-1-yl}-1-[(2R)-2-(trifluoromethyl)morpholin-4-yl]ethan-1-one dihydrochloride]
The IC50 of the first is 15-fold lower: 3.6 nM for the first, 54 nM for the second.
